Legend:
[1] = Dissociation constant by titration with ethanolic NaOH; assay type: physicochemical; details: water; aqueous solution; Henderson-Hasselbalch; standard deviation 10^0.04; read-out: dissociation constant (Ka)
Experimental: The purity of ODA was then determined by titration with ethanolic NaOH. The molarity of NaOH was standardized by anhydrous oxalic acid which was dried overnight at 100° C. Three points in the titration curve, with the ratios of [A-] to [HA] equal to 1/3, 1/1 and 3/1, respectively, were chosen for the calculation of the dissociation constant (Ka) of ODA based on the Henderson-Hasselbalch equation (Mathews et al., (1990)): […]

[2] = test system: separated upper stipes of Agaricus bisporus; assay: Elongation of separated upper stipes on test agar containing ODA, storage at 12° C.; design: species or system Agaricus bisporus (hybrid off-white)
Experimental: Four type strains of mushrooms were used: the white, off-white, hybrid white (U3) and hybrid off-white (U1). Mushrooms from each flush were harvested before the veil was broken. Freshly harvested mushrooms were transported within about one hour after harvest to Borland Laboratory and placed in the pilot plant cold room (4° C.) for about two hours before sampling. Mushrooms were sorted on the basis of size and appearance. Diseased, damaged, misshapen, veil-opened and extremely large or small mushrooms (>40 or <25 mm in cap diameter) were discarded. Mushrooms of uniform size (25-40 mm) and maturity of the button stage (stage 1, veil intact tightly) were used in this research.
Whole stipes were cut at the lower portions to a length of 7-9 mm to standardize the sample, and marked at the middle of the veil, which is the location where the veil attaches to the stipe, to indicate the upper and lower stipes. The separated stipes contained 2-4 mm of upper stipes and 5-6 nun of lower stipes. For the study using separated upper stipes, mushrooms were dissected directly into upper stipes with a length of 3-5 mm. The separated stipes or upper stipes were put upside down on the test agar containing various mushroom supernatants or ODA concentrations; i.e., the upper sides in contact with the agar surface (FIG. 12). All petri dishes were covered and stored at 12° C. The length of separated stipes and upper stipes was measured using a vernier caliper before and after certain days of storage.
Sterile ODA solutions were aseptically added into the autoclaved agar solutions to achieve the desired final ODA concentrations. The agar solution was then dispensed into dishes, ca 20.8 mL per dish. The level of ODA tested included 10^-4, 10^-5, 10^-6, 10^-7, and 10^-8 M. Mushrooms (hybrid off-white) from 6 different crops were used to study their postharvest growth. In the first 2 experiments, mushroom stipes were measured after 4-day storage at 12° C. In order to prevent stipe deterioration and desiccation of the test agar, in the following experiments mushroom stipes were measured after 3-day storage at 12° C.
The experimental data were subjected to a single classification analysis of variance (AOV) for a completely randomized design (Steele et al., 1980). Fisher's protected least significant difference (LSD) was applied to separate the means. The level of significance used in this research was 0.05.
Since the upper stipe was the major portion which responded to crude preparations of ODA, the following experiment used only upper stipes and applied pure ODA solns to the test agar. Because desiccation of the test agar sometimes occurred after 4 days of storage, in the third replication of this experiment and in subsequent experiments, the stipes were measured after 3 days of storage.

Solubility = assay type: physicochemical
[3] = test system: Agaricus bisporus mycelia; assay: Dry matter of mycelia grown in potato dextrose yeast broth at 25° C.; assay type: cell-based, Agaricus bisporus (hybrid off-white); details: Week 5, control 15.6 b
Experimental: The commercial mushroom spawn (hybrid off-white), Agaricus bisporus (Lange) Imbach, was obtained from Alpha Spawn Co., Avondale, Pa., and inoculated onto potato dextrose yeast (PDY) agar (Difco) and incubated at 25° C. A pure culture was obtained from the grain spawn grown on petri dishes and re-inoculated into PDY agar and maintained at 25° C. before use.
The mushroom culture was grown on PDY agar or in PDY broth, both containing 0.5% yeast extract. The broth was dispensed into flasks prior to autoclaving, 50 mL. per flask, while 5 mL of sterile ODA solutions were aseptically added into flasks before inoculation.
To prepare ODA solutions, about 18.4 mg (0.1 mmole) of 10-oxo-trans-8-decenoic acid prepared as described above were dissolved in i mL ethanol and diluted with deionized water to 100 mL to give a molar concentration of 10^-3 M, and then diluted in order to add 1.0 mL of the solutions to each flask to give the required final concentrations.
Sterile ODA solutions were aseptically added into the autoclaved agar medium to achieve the desired final ODA concentrations, and then the medium was dispensed into petri dishes, ca 30 ml per dish. The levels of ODA tested included 2×10^-4, 10^-4, 10^-5, 10^-6 and 10^-7 M for both PDY agar and broth. These flasks and dishes were inoculated with 1 mm mycelial plugs from 4-week old cultures and incubated statically at 25° C. for 5 weeks. Each week, ca 300 μL of broth was aseptically taken from the flasks for laccase assay, while the colony diameter of every petri dish was measured using a vernier caliper to calculate the linear growth of the culture.
After 5-weeks of incubation, the dry matter of mycelia was determined by vacuum filtering liquid cultures in PDY broth through weighed filter paper, and drying to constant weight at 70° C.
Methods for the estimation of total fungal growth include the measurement of dry matter, linear growth, carbon dioxide evolution, chitin, ATP as well as extracellular laccase activity (Cochrane, (1958); Wood, (1979)). In this research the linear growth rate was used to examine the growth of mushroom mycelia on agar plates, while the extracellular laccase activity and dry matter were determined to estimate the growth of mycelia in liquid cultures. Extracellular laccases (p-diphenol: oxygen oxidoreductase, EC 1.10.3.2) produced by various classes of fungi are reported to be involved in biotransformation of lignin and lignosulfonate (Anders et al., (1976)), as well as in the breakdown of cellulose by cellulase (Westermark et al., (1974a); Westermark et al., (1974b); Haars et al., (1980)). Although the role of laccase in growth and development of Agaricus bisporus is not well defined, it has been observed that laccase production correlated with mycelial biomass of this fungus (Wood, (1979); Matcham et al., (1985); Claydon et al., (1988)).

Which results are given for `O=C/C=C/CCCCCCC(=O)O` [ODA, 10-oxo-trans-8-decenoic acid]?
pKa [1]: 4.68; % Elongation of upper stipes ([2]; ODA 10^-4 M (18.4 ppm), rep 1, 4-day storage, control 34.3): 34.8%; % Elongation of upper stipes ([2]; ODA 10^-4 M (18.4 ppm), rep 2, 4-day storage, control 33.3): 40.1%; % Elongation of upper stipes ([2]; ODA 10^-4 M (18.4 ppm), rep 3, 3-day storage, control 20.5): 17.7%; % Elongation of upper stipes ([2]; ODA 10^-5 M (1.84 ppm), rep 1, 4-day storage, control 34.3): 35.5%; % Elongation of upper stipes ([2]; ODA 10^-5 M (1.84 ppm), rep 2, 4-day storage, control 33.3): 36.5%; % Elongation of upper stipes ([2]; ODA 10^-5 M (1.84 ppm), rep 3, 3-day storage, control 20.5): 19.3%; % Elongation of upper stipes ([2]; ODA 10^-6 M (0.184 ppm), rep 1, 4-day storage, control 34.3): 39.9%; % Elongation of upper stipes ([2]; ODA 10^-6 M (0.184 ppm), rep 2, 4-day storage, control 33.3): 35.7%; % Elongation of upper stipes ([2]; ODA 10^-6 M (0.184 ppm), rep 3, 3-day storage, control 20.5): 16.6%; % Elongation of upper stipes ([2]; ODA 10^-7 M (0.0184 ppm), rep 1, 4-day storage, control 34.3): 41.0%; % Elongation of upper stipes ([2]; ODA 10^-7 M (0.0184 ppm), rep 2, 4-day storage, control 33.3): 42.3%; % Elongation of upper stipes ([2]; ODA 10^-7 M (0.0184 ppm), rep 3, 3-day storage, control 20.5): 18.1%; % Elongation of upper stipes ([2]; ODA 10^-8 M (0.00184 ppm), rep 1, 4-day storage, control 34.3): 30.1%; % Elongation of upper stipes ([2]; ODA 10^-8 M (0.00184 ppm), rep 2, 4-day storage, control 33.3): 39.6%; % Elongation of upper stipes ([2]; ODA 10^-8 M (0.00184 ppm), rep 3, 3-day storage, control 20.5): 15.8%; elongation of upper stipes among treatments (in words) ([2]; pure ODA, upper stipes only): no differences; solubility (Solubility; acetone, chloroform, ethanol, ethyl ether, methanol, methylene chloride and water): soluble; solubility (Solubility; non-polar solvents such as pentane, hexane, heptane and benzene): slightly soluble; Dry matter ([3]; ODA 2 × 10^-4 M (36.8 ppm)): 16.7 mg; Dry matter ([3]; ODA 10^-4 M (18.4 ppm)): 23.2 mg; Dry matter ([3]; ODA 10^-5 M (1.84 ppm)): 48.5 mg; Dry matter ([3]; ODA 10^-6 M (0.184 ppm)): 44.1 mg; Dry matter ([3]; ODA 10^-7 M (0.0184 ppm)): 16.9 mg

— US5681738A, “Use of 10-oxo-trans-8-decenoic acid in mushroom cultivation” (The Penn State Research Foundation, priority 1992, dated 1997)
